# Ends that are not written are not given here. FAM = fluorescein label (FAM, fluorescein-labelled)
# Key:
# human breast carcinoma = assay: Dipping of fresh human breast carcinoma samples in FAM-labelled peptide; format: binding
# Method: Fresh, untreated samples of human breast carcimoma were dipped, 1 hr post surgery, in 20 μM FAM-CSG for 1 hr, followed by 3×1.5 min washes with 1× PBS.
# This absence of binding of PAM-ARA was confirmed using anti-fluorescein antibody (data not shown).
# fibrotic tissue = assay: Binding to liver tissue sections of mice fed choline deficient diet; set-up: species or system mice (C57BL/6 strain)
# Method: Mice (C57BL/6 strain) were fed a choline deficient diet, for 4 weeks (early liver fibrosis), 16 weeks (advanced fibrosis-cirrhosis) or 28 weeks (advanced HCC), after which liver tissue was examined. Acetone-fixed fresh frozen 8 μm issue cross sections were incubated with either 1 μM FAM-CSG or 5 μM FAM-ARA for 30 min in 1×PBS buffer at room temperature, FAM-CSG or FAM-ARA binding were confirmed using anti-FITC-HRP antibody staining.
# occluded arteries = assay: Dipping assay of occluded arteries from a human patient; format: binding; conditions: occlusive peripheral vascular disease, after limb amputation
# tumour ECM = assay: Co-localisation of CSG with ECM markers in tumour tissue sections; format: binding, mouse and human
# Method: Following incubation of whole tissue (for mouse insulinoma and human breast cancer) or 8 μm tissue cross section, (for mouse and human HCC) with FAM-CSG peptide, tissue cross sections were co-stained with 0.3 μg in 100 μL of anti-nidogen-1 (Rat anti-monoclonal mouse nidogen-1, Millipore) or anti-collagen-1 (Rabbit polyclonal collagen 1, Abeam) markers of ECM, for 1 hr at room temperature. Stained sections were washed 3× with 1×TBS buffer. Tissue sections were re-incubated with donkey anti-Rat or Rabbit IgG (H+L) secondary antibody Alexa 594 (0.4 μg in 100 μL for 30 min. at room temperature), followed by 3×wash with 1×TBS buffer. Co-localisation of CSG with these ECM markers highlights the specificity of CSG binding to tumour ECM (FIG. 2). Co-localisation was not observed in normal healthy tissue.
# aorta containing plaque = assay: In vivo accumulation of FAM-CSG in aorta containing plaque; set-up: species or system mice; conditions: 1 hr after i.v. injection of 100 μl 1 mM FAM-CSG
# [1] = test system: hepatocellular carcinoma or breast carcinoma; assay: FAM-CSG accumulation in tumours after tail vein injection; format: in vivo, mice; conditions: 100 μL of 1 mM i.v., tissue harvested 1 hr after injection
# Method: Fluorescein-labelled (FAM)-CSG (CSGRRSSKC; SEQ ID NO:1) (100 μL of 1 mM stock made in sterile 1× PBS) was injected into the tail vein of tumour-bearing mice (hepatocellular carcinoma or breast carcinoma, in C3H and BALB/c strains, respectively). Tissue was harvested without perfusion 1 hr after injection and peptide accumulation observed under UV illumination. […] Homing was specific to tumours, with only clearance organs (intestines, kidneys) showing limited accumulation of FAM-CSG.
# [2] = test system: plaques from the ApoE null mice; assay: Incubation of aorta with FAM-labelled peptide; format: binding; conditions: 20 nmol/ml
# Method: To determine whether CSG also recognises fibroatheroma, healthy aorta from wild type C57BL/6 mice and aorta from ApoE null mice were incubated with 20 nmol/ml fluorescein-labelled FAM-CSG or ARA control.
substance,measurement,setting,value
"FAM-ARA: control fluorescein-labelled (FAM)-ARA peptide, ARALPSQRSR (SEQ ID NO:5) ({FAM}-ARALPSQRSR) [reference compound]",binding to human breast carcinoma tissue,human breast carcinoma; control peptide,showed no binding to the human breast carcinoma tissue
CSGRRSSKC,binding to fibrotic liver tissue,"fibrotic tissue; 4, 16 or 28 weeks choline deficient diet, 1 μM FAM-CSG, 30 min",effectively binds fibrotic tissue at all stages
same,effect of preincubation with unlabeled peptide on FAM-CSG accumulation,human breast carcinoma; excess 1 mg unlabeled CSG,abolished the FAM-CSG specific penetration and accumulation in tumours
same,binding to human occluded arteries and plaques,occluded arteries,specific binding of CSG to the occluded arteries and specific accumulation of CSG in plaques
same,co-localisation with ECM markers in tumours,"tumour ECM; murine insulinoma and HCC, human breast carcinoma and HCC","co-localises with two known ECM markers, collagen-1 and nidogen-1"
same,co-localisation with ECM markers in normal healthy tissue,tumour ECM; normal healthy tissue,not observed
same,co-localisation of in vivo accumulation with ECM marker,aorta containing plaque,co-localises with the ECM marker laminin
FAM-CSG: Fluorescein-labelled (FAM)-CSG (CSGRRSSKC; SEQ ID NO:1) ({FAM}-CSGRRSSKC; cysteine pairing not given here),co-localisation with ECM marker nidogen-1 in fibrotic liver,"fibrotic tissue; 1 μM, 30 min",co-localised with staining for the ECM marker nidogen-1
same,binding to normal liver,fibrotic tissue; mice fed normal chow diet,limited binding
same,binding to human breast carcinoma tissue,human breast carcinoma; 20 μM for 1 hr,bound specifically to the tumour tissue and not to normal or marginal tissue
same,peptide accumulation in tumours under UV illumination,[1],accumulates in both tumour types
same,binding to aortic plaques,[2],"specifically bound to, and accumulated in, plaques"

# — patent US20190022239A1, “NOVEL BIOMOLECULE CONJUGATES AND USES THEREFOR” (The University of Western Australia, priority 2016, published 2019)
